{"source": "patent US20240417410A1", "about": "“TRICYCLIC COMPOUNDS FOR THE TREATMENT OF CANCER” (Hoffmann-La Roche Inc., priority 2023, published 2024)", "test_in_all_cases": "Cell proliferation, CTG 3D, 7 d", "type_in_all_cases": "cell-based", "key": {"NCI-H1915": {"test_system": "NCI-H1915", "settings": "Homo sapiens", "in_short": "(§1)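 3D spheroid viability: ultra-low-adhesion plates, 37° C/5% CO2; 9-point 3-fold titration, DMSO 0.2%; 7 d exposure. CTG 3D read-out, 30 min shake in dark. % inhibition = (Max−Sample)/(Max−Min)×100; relative IC50 from fit.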"}, "TT": {"test_system": "TT", "settings": "Homo sapiens, KRAS (WT ampl)", "in_short": "as §1"}, "NCI-H838": {"test_system": "NCI-H838", "settings": "Homo sapiens; NCI-H838, KRAS (WT ampl)", "in_short": "as §1"}, "COR-L23": {"test_system": "COR-L23", "settings": "Homo sapiens; COR-L23, KRAS (G12V)", "in_short": "as §1"}, "HCT-15": {"test_system": "HCT-15", "settings": "Homo sapiens", "in_short": "as §1"}, "CFPAC-1": {"test_system": "CFPAC-1", "settings": "Homo sapiens; CFPAC-1, KRAS (G12V)", "in_short": "as §1"}, "T84": {"test_system": "T84", "settings": "Homo sapiens", "in_short": "as §1"}, "CAL-62": {"test_system": "CAL-62", "settings": "Homo sapiens", "in_short": "as §1"}, "HT-1197": {"test_system": "HT-1197", "settings": "Homo sapiens, HT1197", "in_short": "as §1"}, "SW 948": {"test_system": "SW 948", "settings": "Homo sapiens, SW948", "in_short": "as §1"}, "SK-CO-1": {"test_system": "SK-CO-1", "settings": "Homo sapiens; SK-CO-1, KRAS (G12V)", "in_short": "as §1"}, "A549": {"test_system": "A549", "settings": "Homo sapiens", "in_short": "as §1"}, "MDA-MB-134-VI": {"test_system": "MDA-MB-134-VI", "settings": "Homo sapiens", "in_short": "as §1"}, "NCI-H650": {"test_system": "NCI-H650", "settings": "Homo sapiens", "in_short": "as §1"}, "RL95-2": {"test_system": "RL95-2", "settings": "Homo sapiens", "in_short": "as §1"}, "Panc 02.03": {"test_system": "Panc 02.03", "settings": "Homo sapiens; Panc 02.03, KRAS (G12D)", "in_short": "as §1"}, "HCC-15": {"test_system": "HCC-15", "settings": "Homo sapiens, HCC15", "in_short": "as §1"}, "PSN-1": {"test_system": "PSN-1", "settings": "Homo sapiens, PSN1", "in_short": "as §1"}, "RPMI8226": {"test_system": "RPMI8226", "settings": "Homo sapiens, RPMI-8226", "in_short": "as §1"}, "NCI-H2444": {"test_system": "NCI-H2444", "settings": "Homo sapiens; NCI-H2444, KRAS (G12V)", "in_short": "as §1"}, "OCI-AML-3": {"test_system": "OCI-AML-3", "settings": "Homo sapiens", "in_short": "as §1"}, "Mia-pa-ca-2": {"test_system": "Mia-pa-ca-2", "settings": "Homo sapiens, MIA PaCa-2; Mia-pa-ca-2, KRAS (G12C)", "in_short": "as §1"}, "DV-90": {"test_system": "DV-90", "settings": "Homo sapiens", "in_short": "as §1"}, "H9": {"test_system": "H9", "settings": "Homo sapiens", "in_short": "as §1"}, "NCI-H2135": {"test_system": "NCI-H2135", "settings": "Homo sapiens", "in_short": "as §1"}, "HCT-8": {"test_system": "HCT-8", "settings": "Homo sapiens", "in_short": "as §1"}, "HPAC": {"test_system": "HPAC", "settings": "Homo sapiens, KRAS (G12D)", "in_short": "as §1"}}, "note": "Where two headings read alike, the source gives them in different places.", "data": [{"molecule": "CO[C@@H](C)c1ncc(N2CCN(C)CC2)cc1-c1c2c3cc(cc4c3n1CCC4)-c1csc(n1)C[C@H](NC(=O)[C@H]1[C@H](C)[C@@H]1C)C(=O)N1CCC[C@H](N1)C(=O)OCC(C)(C)C2", "note": "(atropisomer, axis not shown; (M)) [Example 24, (1r,2R,3S)-N-[(7S,13S)-(20M)-20-[2-[(1S)-1-methoxyethyl]-5-(4-methylpiperazin-1-yl)-3-pyridyl]-17,17-dimethyl-8,14-dioxo-15-oxa-4-thia-9,21,30,31-tetrazahexacyclo[23.3.1.1^2,5.1^9,13.0^19,27.0^21,26]hentriaconta-1 (28),2,5 (31), 19,25 (29),26-hexaen-7-yl]-2,3-dimethyl-cyclopropanecarboxamide]", "values": [{"measurement": "IC50", "setting": "NCI-H1915; NCI-H1915, HRAS (p.Q61L), read-out: IC50", "value": 3.6, "unit": "nM"}, {"measurement": "IC50", "setting": "TT", "value": 2.9, "unit": "nM"}, {"measurement": "IC50", "setting": "NCI-H838", "value": 100, "unit": "nM"}, {"measurement": "IC50", "setting": "COR-L23", "value": 0.53, "unit": "nM"}, {"measurement": "IC50", "setting": "HCT-15; HCT-15, KRAS (G13D), read-out: IC50", "value": 100, "unit": "nM"}, {"measurement": "IC50", "setting": "CFPAC-1", "value": 0.54, "unit": "nM"}, {"measurement": "IC50", "setting": "T84; T84, KRAS (G13D), read-out: IC50", "value": 100, "unit": "nM"}, {"measurement": "IC50", "setting": "CAL-62; CAL-62, KRAS (G12R), read-out: IC50", "value": 1.1, "unit": "nM"}, {"measurement": "IC50", "setting": "HT-1197; HT-1197, NRAS (p.Q61R), read-out: IC50", "value": 1.4, "unit": "nM"}, {"measurement": "IC50", "setting": "SW 948; SW 948, KRAS (Q61L), read-out: IC50", "value": 2.9, "unit": "nM"}, {"measurement": "IC50", "setting": "SK-CO-1", "value": 0.18, "unit": "nM"}, {"measurement": "IC50", "setting": "A549; A549, KRAS (G12S), read-out: IC50", "value": 0.72, "unit": "nM"}, {"measurement": "IC50", "setting": "MDA-MB-134-VI; KRAS (G12R), read-out: IC50", "value": 1.5, "unit": "nM"}, {"measurement": "IC50", "setting": "NCI-H650", "value": 2.3, "unit": "nM"}, {"measurement": "IC50", "setting": "RL95-2; RL95-2, HRAS (p.Q61H), read-out: IC50", "value": 1.3, "unit": "nM"}, {"measurement": "IC50", "setting": "Panc 02.03", "value": 3.2, "unit": "nM"}, {"measurement": "IC50", "setting": "HCC-15; HCC-15, NRAS (p.Q61K), read-out: IC50", "value": 0.68, "unit": "nM"}, {"measurement": "IC50", "setting": "PSN-1; PSN-1, KRAS (G12R), read-out: IC50", "value": 0.85, "unit": "nM"}, {"measurement": "IC50", "setting": "RPMI8226; RPMI8226, KRAS (G12A), read-out: IC50", "value": 0.38, "unit": "nM"}, {"measurement": "IC50", "setting": "NCI-H2444", "value": 0.17, "unit": "nM"}, {"measurement": "IC50", "setting": "OCI-AML-3; OCI-AML-3, NRAS (p.Q61L), read-out: IC50", "value": 3.3, "unit": "nM"}, {"measurement": "IC50", "setting": "Mia-pa-ca-2", "value": 0.064, "unit": "nM"}, {"measurement": "IC50", "setting": "DV-90; DV-90, KRAS (G13D), read-out: IC50", "value": 3.9, "unit": "nM"}, {"measurement": "IC50", "setting": "H9; H9, NRAS (p.Q61K), read-out: IC50", "value": 0.72, "unit": "nM"}, {"measurement": "IC50", "setting": "NCI-H2135; NCI-H2135, NRAS (p.Q61K), read-out: IC50", "value": 0.71, "unit": "nM"}, {"measurement": "IC50", "setting": "HCT-8; HCT-8, KRAS (G13D), read-out: IC50", "value": 80, "unit": "nM"}, {"measurement": "IC50", "setting": "HPAC", "value": 0.31, "unit": "nM"}]}, {"molecule": "CCn1c(-c2cc(N3CCN(C)CC3)cnc2[C@H](C)OC)c2c3cc(ccc31)-c1csc(n1)C[C@H](NC(=O)[C@H]1C[C@@H]1C)C(=O)N1CCC[C@H](N1)C(=O)OCC(C)(C)O2", "note": "[Example A122, reference compound]", "values": [{"measurement": "IC50", "setting": "NCI-H1915; NCI-H1915", "value": 10, "unit": "nM"}, {"measurement": "IC50", "setting": "TT", "value": 5.9, "unit": "nM"}, {"measurement": "IC50", "setting": "NCI-H838", "value": 100, "unit": "nM"}, {"measurement": "IC50", "setting": "COR-L23", "value": 0.78, "unit": "nM"}, {"measurement": "IC50", "setting": "HCT-15; HCT-15", "value": 100, "unit": "nM"}, {"measurement": "IC50", "setting": "CFPAC-1", "value": 1.1, "unit": "nM"}, {"measurement": "IC50", "setting": "T84; T84", "value": 100, "unit": "nM"}, {"measurement": "IC50", "setting": "CAL-62; CAL-62", "value": 8.8, "unit": "nM"}, {"measurement": "IC50", "setting": "HT-1197", "value": 2.5, "unit": "nM"}, {"measurement": "IC50", "setting": "SW 948", "value": 8.5, "unit": "nM"}, {"measurement": "IC50", "setting": "SK-CO-1", "value": 0.33, "unit": "nM"}, {"measurement": "IC50", "setting": "A549; A549", "value": 1.1, "unit": "nM"}, {"measurement": "IC50", "setting": "MDA-MB-134-VI", "value": 2.6, "unit": "nM"}, {"measurement": "IC50", "setting": "NCI-H650", "value": 9.6, "unit": "nM"}, {"measurement": "IC50", "setting": "RL95-2; RL95-2", "value": 2.6, "unit": "nM"}, {"measurement": "IC50", "setting": "Panc 02.03", "value": 5.2, "unit": "nM"}, {"measurement": "IC50", "setting": "HCC-15", "value": 1.7, "unit": "nM"}, {"measurement": "IC50", "setting": "PSN-1", "value": 1.2, "unit": "nM"}, {"measurement": "IC50", "setting": "RPMI8226", "value": 0.52, "unit": "nM"}, {"measurement": "IC50", "setting": "NCI-H2444", "value": 0.29, "unit": "nM"}, {"measurement": "IC50", "setting": "OCI-AML-3; OCI-AML-3", "value": 8.9, "unit": "nM"}, {"measurement": "IC50", "setting": "Mia-pa-ca-2", "value": 0.082, "unit": "nM"}, {"measurement": "IC50", "setting": "DV-90; DV-90", "value": 4.7, "unit": "nM"}, {"measurement": "IC50", "setting": "H9; H9", "value": 1.6, "unit": "nM"}, {"measurement": "IC50", "setting": "NCI-H2135", "value": 1.2, "unit": "nM"}, {"measurement": "IC50", "setting": "HCT-8; HCT-8", "value": 69, "unit": "nM"}, {"measurement": "IC50", "setting": "HPAC", "value": 0.3, "unit": "nM"}]}]}
